What was measured:
[1] = Hygroscopicity at room temperature (weight gain and visual phase transition after 24 hours at controlled RH); format: physicochemical
Procedure: Hygroscopicity of salts of invention were measured by placing 20-50 mg of the sample in an uncapped scintillation vial. The vial was stored at ambient temperature in a Pyrex brand desiccator (VWR, International, CT). […] The relative humidity was confirmed using a digital hygrometer pen (VWR International, CT). An empty scintillation vial was also placed in the desiccator as a control. […] Visual observation of phase transition was also noted.

[2] = Glass transition temperature (Tg) by modulated differential scanning calorimetry (mDSC); format: physicochemical; details: for Tg (° C.) First heating / Tg (° C.) Second heating: mDSC, precipitated salts of Compound 1; for Tg (° C.) First heating: first heating cycle; for Tg (° C.) Second heating: second heating cycle (intrinsic Tg in dry state); for Tg (° C.): spray dried salts (from acetone)
Procedure: Modulated differential scanning calorimetry (mDSC) was used to characterize salts of the invention. Solid samples were placed in hermetically sealed aluminum pan with a pinhole. Modulation amplitude of ±0.8° C. with a period of 60 sec was applied to the sample heated at 2° C./min under dried nitrogen purge using TA instruments (New Castle, Del., USA) model 1000.
Heat-cool-heat cycles were applied to allow for moisture evaporation during first heating cycle and to erase thermal history of the sample, which allowed for the determination of the intrinsic glass transition temperature (Tg) in dry state.

[3] = 55% RH, room temperature, 24 hours
[4] = 55% RH, room temperature, 24 hours, visual observation
[5] = 75% RH, room temperature, 24 hours
[6] = 75% RH, room temperature, 24 hours, visual observation

Compound	% weight gain [1, 3] [%]	Phase transition [1, 4]	% weight gain [1, 5] [%]	Phase transition [1, 6]	Phase transition ([1]; spray dried salts, 55% RH)	Weight gain at 55% RH RH (%) ([1]; spray dried salts, 55% RH)	Phase transition ([1]; spray dried salts, 75% RH)	Weight gain at 75% (%) ([1]; spray dried salts, 75% RH)	Tg (° C.) First heating [2] [°C]	Tg (° C.) Second heating [2] [°C]	Tg (° C.) [2] [°C]
CC(C)c1nc(CN(C)C(=O)NC(CCN2CCOCC2)C(=O)NC(CCC(Cc2ccccc2)NC(=O)OCc2cncs2)Cc2ccccc2)cs1.O=C(O)c1ccc2ccccc2c1O (centres unmarked) [xinafoate]	0.29	No	1.97	No	no	2.6	no	3.3	49	51	42
ascorbate	3.23	No	7.56	Yes					42	60	
benzoate	1.99	Yes	3.63	Yes					14	23	
dichloroacetate	3.36	Yes	7.3	Yes						34	
fumarate	2.11	No	6.02	Yes	no	3.2	yes	6.0	37	51	31
maleate	4.41	Yes	6.67	Yes					24	37	
tartarate	3.23	No	7.6	Partial	no	5.8	yes	6.3	44	66	67
tosylate	3.11	Partial	6.5	Yes					32	46	

From patent US20140187771A1, “AMORPHOUS SOLID SALTS” (Gilead Sciences, Inc., priority 2011, published 2014)
